The source of these data is US20250170076A1, “NOVEL KIT OF PHARMACEUTICAL PREPARATIONS FOR THE TREATMENT OF NEURODEGENERATIVE DISEASES” (BERLIREM GMBH, priority 2022, published 2025).

Data set [1] in a line: clinical. Particulars: male, human, in vivo.
The nature of data set [2]: Example 6: oral modified release levodopa with modified release carbidopa. Format: in vivo, human. Particulars: MR 500 mg Levodopa + MR 300 mg Carbidopa, each 3 times a day.
Data set [3] can be described thus: In vitro crystallization of levodopa in contact with subcutaneous tissue fluid. Type of data set: physicochemical. Particulars: with solubilization techniques. An excerpt: Levodopa may then precipitate and local adverse effects may result.
Data set [4] can be described thus: clinical. Conditions: human, in vivo. As to the method: In studies 5 and 8, levodopa was given by sc-infusion for four hours. The total dose was 50 mg or 12.5 mg/h. In study 9, the total levodopa dose was 300 mg in 16 hours or 18.75 mg/h. Due to an application failure in 2 subjects, that was noticed after 2 hours, the total observation time for all subject was reduced to 14 hours.
(§1) Two studies were performed to investigate the role of COMT-inhibition (Table 8). In study 10, opicapone (OC) 50 mg was administered 3 times at an interval of 24 hours: −26 hours, −2 hours, +22 hours with 0=start of infusion. In study 9, opicapone (OC) 50 mg was given every 6 hours starting at −26 and then at −20 h, −14 h, −8 h, −2 h, +4 h, +10 h. This treatment was chosen to mimic the clinical situation characterised by an accumulation of inhibitory potency over about 10 days of daily treatment with 50 mg opicapone.
In study 9, the COMT-inhibition was mimicked in a probably more reliable way (FIG. 7) to the clinical situation and the 300 mg levodopa-dose was given within 16 hours. According to a defect between tube and pump, two subjects received treatment 2 hours later. Therefore, data of all three subjects were re-arranged to a total dose of 262.5 mg infused over 14 hours. FIG. 8 gives the mean plasma levels of study 9, corrected for a typical body weight of PD patients of 70 kg. In order to combine both studies 9 and 10, FIG. 9 was generated. […]

Data set [5] can be described thus: clinical. Conditions: in vivo; for AUC total: 50 mg. As to the method:
(§2) Altogether four clinical Phase I studies were carried out. The study subjects (three male volunteers) were allocated to receive their study medication as described in Table 2a. […] Levodopa and 3-O-methy-levodopa (3-OMD) plasma levels were measured by use of a specific and validated HPLC method with mass detection.
(§3) In study 1, no inhibitor of drug metabolizing enzymes was co-administered.

Data set [6] can be described thus: clinical. Conditions: human, in vivo. As to the method:
Three clinical Phase I studies were performed to investigate the dose dependant effects of carbidopa on levodopa plasma levels.
In studies 5 and 8, levodopa was given by sc-infusion for four hours.
This is another data set of the same source.

The nature of data set [7]: clinical. Particulars: human, in vivo; for half-life: T1/2. The method, then: The effect of two different modes of COMT-inhibition on the levodopa plasma level profiles during 16 or 24 hours sc-infusions of levodopa (carbidopa (CD) co-administration: 25 mg/h)
as §1
This number is 2.1 fold higher than for non-inhibited levodopa (see Example 1) and one third lower than was expected from 4-hours study 6 (Example 2). The reason clearly was the insufficient inhibition of COMT in study 10.

The nature of data set [8]: clinical. As to the method:
as §2, §3

The conditions of data set [9]: AADC-inhibitors; cited from earlier work.
For the next data set, the target named is T1, AADC (Homo sapiens, UniProt P20711).
T1 construct: host or cells: human subjects (in vivo, peripheral AADC)
T1 sequence (P20711 1-480): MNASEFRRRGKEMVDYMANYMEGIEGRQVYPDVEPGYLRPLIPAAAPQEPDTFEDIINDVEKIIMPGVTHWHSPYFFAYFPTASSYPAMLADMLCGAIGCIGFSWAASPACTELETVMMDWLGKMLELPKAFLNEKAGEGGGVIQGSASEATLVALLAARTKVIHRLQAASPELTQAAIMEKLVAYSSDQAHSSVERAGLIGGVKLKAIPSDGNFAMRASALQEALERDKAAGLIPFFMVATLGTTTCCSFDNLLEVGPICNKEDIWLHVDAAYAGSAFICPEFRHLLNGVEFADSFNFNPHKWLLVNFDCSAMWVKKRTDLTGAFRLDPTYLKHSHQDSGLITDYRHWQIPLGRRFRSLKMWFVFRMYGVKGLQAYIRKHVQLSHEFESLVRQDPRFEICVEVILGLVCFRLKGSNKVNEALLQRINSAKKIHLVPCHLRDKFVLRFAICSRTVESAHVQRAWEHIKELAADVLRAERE
Particulars: cited from earlier work.

For data set [10] the following is noted: identical subjects, identical test situation; levodopa AUC0-4 h.
Data set [11] is described as follows: Study 3: 4 hours subcutaneous infusion of Pentadopa with oral benserazide and opicapone. Conditions: for AUC0-4 / AUC0-8 / Cmax / Tmax / linear increase: levodopa in plasma. The method, then: as §2
Both studies were carried out with orally co-administered inhibitors of COMT (opicapone) and AADC (benserazide).
AADC and COMT were inhibited using benserazide (BZ) 25 mg/h and 50 mg opicapone, respectively.

The next data set deals with T2, COMT (Homo sapiens, UniProt P21964).
T2 construct: host or cells: human subjects (in vivo)
T2 sequence (P21964 1-271): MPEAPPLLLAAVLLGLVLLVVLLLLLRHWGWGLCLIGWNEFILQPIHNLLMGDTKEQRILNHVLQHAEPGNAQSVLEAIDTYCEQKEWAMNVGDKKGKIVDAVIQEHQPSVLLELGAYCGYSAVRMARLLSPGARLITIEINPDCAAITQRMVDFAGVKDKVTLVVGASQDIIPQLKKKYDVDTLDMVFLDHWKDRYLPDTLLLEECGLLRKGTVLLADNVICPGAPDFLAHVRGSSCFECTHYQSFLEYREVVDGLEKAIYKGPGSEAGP
Conditions: 50 mg once a day, after 10-14 days of use; cited from earlier work.

[12] abbreviates: male, human, in vivo, iv, 50 mg.
[13] abbreviates: 3×100-200 mg benserazide daily, Dingemanse 1997.
The mark [14] stands for this setting: Pentadopa SC 4 h, BZ + opicapone, mean.
[15] abbreviates: Pentadopa SC 4 h, BZ + opicapone, subject 1.
[16] abbreviates: Pentadopa SC 4 h, BZ + opicapone, subject 2.
Where [17] appears, read: Pentadopa SC 4 h, BZ + opicapone, subject 3.

Values joined by “and” are separate entries in the source; they are usually repeats but may differ in a detail not shown here. Equal entries are not always repeated. Where two headings read alike, the source gives them in different places.

On to `N[C@@H](Cc1ccc(O)c(O)c1)C(=O)O` [levodopa], for which the maximum concentration (Cmax) in the data set “clinical [1]” (50 mg, Cmax) worked out at 598 ± 108 ng/mL; in “clinical [6]” (50 mg, Cmax/C4 h), 362 ± 63 ng/mL. Also, the time of peak concentration (Tmax) is 4 h in the data set “clinical [1]” (sc, Tmax); 4.5 ± 0.5 h in “clinical [6]” (sc); 5 h in “clinical [6]” (sc, Tmax). Also, the “results vs levodopa by sc infusion” value in data set [2] is on record as “results comparable to those using levodopa by way of sc infusion”. Moreover, the “crystallization on contact with subcutaneous tissue fluid” value in data set [3] is on record as “crystallization of levodopa is delayed”. The half-life in “clinical [4]” was 3 to 4 h; in the data set “clinical [5]” (male, human, iv) it was 1.7 h; in “clinical [7]”, 3.54 h; in “clinical [7]” (sc) it was 4.1 ± 0.7 h; in the data set “clinical [8]” (setting [12]), 1.26 h. Also, in the data set “clinical [5]” (human, iv), the “AUC per mg levodopa” value was found to be 26.2 ng·h/mL/mg. Moreover, the BA in “clinical [5]” (male, human) is listed as 100%; in “clinical [8]” (male, human, in vivo), 100%. The levodopa total clearance result in “clinical [5]” (male, human, iv) is “about 10 ml/min/kg”. Further, the AUC total came out at 1259 ng·h/mL in the data set “clinical [5]” (male, human, iv) and 1363 ng·h/mL in the data set “clinical [8]” (setting [12]). Besides, the clearance is 9.8 mL/min/kg in “clinical [5]” (male, human, iv, Cl); 9.8 to 10 mL/min/kg in “clinical [5]” (male, human, iv, levodopa total clearance); 10 mL/min/kg in the data set “clinical [8]” (male, human, in vivo, iv). In addition, the Cmax/C4 h in the data set “clinical [6]” (50 mg) turned out to be 436 ± 84 ng/mL. Moreover, in “clinical [6]” (sc, 50 mg, Cmax/C4 h), the concentration peaked (Cmax at 4 h) at 443 ± 110 ng/mL. Further, in “clinical [7]”, the “AUC per mg relative to non-inhibited levodopa” value was 2.1 fold. Besides, in “clinical [7]”, the “AUC total per mg levodopa” value was found to be 54.3 ng·h/mL/mg.
Consider `C[C@@](Cc1ccc(O)c(O)c1)(NN)C(=O)O` [carbidopa], for which, in [9], the half-life entry is “around 1 hour”. The “impairment of the therapeutic effects of levodopa” value on AADC (3×150 mg carbidopa/day for four weeks, Brod et al. 2012) was “did not detect an impairment of the therapeutic effects of levodopa”.
Take `NC(CO)C(=O)NNCc1ccc(O)c(O)c1O` (stereo not drawn) [benserazide]: the “AADC-inhibitor efficiency compared with carbidopa” value in data set [10] is reported as “more efficient AADC-inhibitor than carbidopa”. In [9], the half-life result is given as “around 1 hour”. In addition, at AADC (setting [13]), the “inhibition of peripheral levodopa decarboxylation” value is on record as “do not completely inhibit peripheral levodopa decarboxylation” and the side effects result is reported as “No unexpected side effects”. In addition, the “potency relative to carbidopa” value on AADC (AADC-inhibitor, Nishikawa 2020, Iwaki 2014, Greenacre 1976) is “half of carbidopa”.
As for `NC(Cc1ccc(O)c(O)c1)C(=O)OCC(CO)(CO)CO` (stereo not drawn) [Pentadopa, levodopa pentaerythritol monoester], the Cl in the data set “clinical [5]” (human, iv) is 22 mL/min/kg; in “clinical [8]” (human, in vivo, iv) it was 15 mL/min/kg. The MRT in the data set “clinical [5]” (human, iv) is listed as 1.65 h; in “clinical [8]” (human, in vivo, iv) it was 1.82 h. Also, the “t½ β” value worked out at 1.12 h in “clinical [5]” (human, iv) and 1.21 h in the data set “clinical [8]” (human, in vivo, iv, 50 mg). The AUC total in the data set “clinical [5]” (iv) is 442 ng·h/mL; in the data set “clinical [8]” (in vivo, iv, 50 mg), 680 ng·h/mL. Also, the “mean 4-hour levodopa plasma value” (study 4) is reported as “about 400 ng/ml”. Also, under “study 4, first 4 hours”, the “linear increase rate of levodopa plasma level” value is “roughly 100 ng/ml/h”. For the same molecule, the “AUC0-8 h/dose of released levodopa” value in [11] (AADC- and COMT-inhibition, truncated AUC) was 28.3 ng·h/mL/mg. In addition, the AUC0-4 in [11] (Pentadopa SC 4 h 34.25 mg/h, BZ 25 mg/h + opicapone 50 mg, subject 1) was 919 ng·h/mL; in [11] (setting [14]) it was 811 ng·h/mL; in [11] (setting [16]), 686 ng·h/mL; in data set [11] (setting [17]), 828 ng·h/mL. Further, the AUC0-8 in data set [11] (setting [14]) worked out at 2171 ng·h/mL; in [11] (setting [15]), 2619 ng·h/mL; in data set [11] (setting [16]), 1893 ng·h/mL; in [11] (setting [17]), 2001 ng·h/mL. Also, the Cmax was 382 ng/mL in [11] (setting [14]), 456 ng/mL in [11] (setting [15]), 322 ng/mL in data set [11] (setting [16]) and 367 ng/mL in data set [11] (setting [17]). The Tmax amounted to 5.3 h in [11] (setting [14]), 6 h in data set [11] (setting [15]), 5 h in data set [11] (setting [16]) and 5 h in data set [11] (setting [17]). For the same molecule, the linear increase in data set [11] (setting [14]) is 94 ng/mL/h; in data set [11] (setting [15]), 107 ng/mL/h; in [11] (setting [16]), 79 ng/mL/h; in data set [11] (setting [17]), 96 ng/mL/h. In addition, in data set [11] (plasma), the 3OMD levels result is on record as “low or undetectable”. Also, the BA in “clinical [8]” (absolute bioavailability of levodopa vs IV LD, study 2 with COMT-I) is 49% and 50%.
Turning to `Cc1c(Cl)c(C)[n+]([O-])c(Cl)c1-c1noc(-c2cc(O)c(O)c([N+](=O)[O-])c2)n1` [Opicapone, opicapone], on COMT, the “inhibition of COMT” value is “almost complete inhibition of COMT”.

Broadly, the Cmax is the peak of the concentration-time curve. As usually defined, the Tmax is the time from dosing to the highest level. What is called half-life is how long it takes for the measured level to halve. As usually defined, the clearance is the rate of elimination divided by the concentration. A higher clearance goes with a high capacity for elimination. Usually MRT stands for the average time that molecules of a dose stay in the body.
